Key:
[1] = test system: CHEAL (common lambsquarters); assay: Pre-emergence herbicidal activity, warm season; assay type: in vivo, Chenopodium album; details: GR80 = lowest tested rate (300, 100, 30, 10 g/ha) with 80% or greater inhibition; approx. 14 days after treating; 30/21° C.
Summary of the method: (§1)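 GR80 values derive from percent inhibition relative to untreated plants, read roughly 14 days after sowing and pre-emergence soil-surface treatment (compound in 50:50 acetone/water; rates typically 10, 30, 100, 300 g/ha). Warm-season weeds grew at 30/21° C day/night, cool-season ones at 18/13° C; an asterisk marks activity without reaching 80% at the highest rate.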

SORVU (shattercane) [2] = assay: Pre-emergence herbicidal activity, warm season; assay type: in vivo, Sorghum vulgare; details: GR80 = lowest tested rate (300, 100, 30, 10 g/ha) with 80% or greater inhibition; approx. 14 days after treating; 30/21° C.
Summary of the method: as §1

ABUTH (velvetleaf) = assay: Pre-plant incorporated (PPI) herbicidal activity, warm season; assay type: in vivo, Abutilon theophrasti
Summary of the method: (§2)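 Soil-incorporated application: seeds sat beneath a cover layer into which the compound had been sprayed and mixed. Greenhouse growth used a 30/21° C or 18/13° C day/night regime depending on season type. Around 14 days later, inhibition was estimated as a percentage of untreated growth.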

DATST (jimsonweed) = assay: as above; assay type: in vivo, Datura stramonium
Summary of the method: as §2

SORVU (shattercane) [3] = assay: as above; assay type: in vivo, Sorghum vulgare
Summary of the method: as §2

DIGSA (large crabgrass) = assay: as above; assay type: in vivo, Digitaria sanguinalis
Summary of the method: as §2

STEME (common chickweed) = assay: Pre-plant incorporated (PPI) herbicidal activity, cool season; assay type: in vivo, Stellaria media; details: for Percent inhibition STEME: weed, PPI application
Summary of the method: as §2

[4] = test system: AEGCY (jointed goatgrass); assay: as above; assay type: in vivo, Aegilops cylindrica
Summary of the method: as §2

POAAN (annual bluegrass) = assay: as above; assay type: in vivo, Poa annua; details: weed, PPI application
Summary of the method: as §2

oilseed rape (BRSNS) = assay: Selectivity test, PPI, cool season crop; assay type: in vivo, Brassica napus; details: PPI application
Summary of the method: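 Percent inhibition relative to untreated controls, assessed roughly 14 days post-planting. Seeds were covered with a soil layer into which solvent-borne compound had been sprayed and mixed. Plants were then grown at 30/21° C. (warm season) or 18/13° C. (cool season) day/night regimes.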

[5] = pre-plant incorporated, GR80 = lowest tested rate with 80% or greater inhibition, approx. 14 days after treating, 30/21° C.
[6] = pre-plant incorporated, lowest tested rate with 80% or greater inhibition, about 14 days

C=CCC(F)(F)S(=O)(=O)c1ncn(C(=O)N(CC)CC)n1 [Example 17, 1-(N,N-diethylcarbamoyl)-3-[(1,1-difluoro-3-butenyl)sulfonyl]-1,2,4-triazole]
Pre-emergence activity (GR80) CHEAL [1]: 100 g/ha | Pre-emergence activity (GR80) SORVU (SORVU (shattercane) [2]): 100 g/ha | inhibition at 10 g/ha (ABUTH (velvetleaf); Abutilon theophrasti, PPI application, 10 g/ha, read-out: Percent inhibition ABUTH): 0% | inhibition at 30 g/ha (ABUTH (velvetleaf); Abutilon theophrasti, PPI application, 30 g/ha, read-out: Percent inhibition ABUTH): 0% | inhibition at 100 g/ha (ABUTH (velvetleaf); Abutilon theophrasti, PPI application, 100 g/ha, read-out: Percent inhibition ABUTH): 0% | inhibition at 300 g/ha (ABUTH (velvetleaf); Abutilon theophrasti, PPI application, 300 g/ha, read-out: Percent inhibition ABUTH): 40% | inhibition at 900 g/ha (ABUTH (velvetleaf); Abutilon theophrasti, PPI application, 900 g/ha, read-out: Percent inhibition ABUTH): 100% | PPI activity (GR80) ABUTH (ABUTH (velvetleaf); [5]): 100 g/ha | inhibition at 10 g/ha (DATST (jimsonweed); Datura stramonium, PPI application, 10 g/ha, read-out: Percent inhibition DATST): 0% | inhibition at 30 g/ha (DATST (jimsonweed); Datura stramonium, PPI application, 30 g/ha, read-out: Percent inhibition DATST): 0% | inhibition at 100 g/ha (DATST (jimsonweed); Datura stramonium, PPI application, 100 g/ha, read-out: Percent inhibition DATST): 30% | inhibition at 300 g/ha (DATST (jimsonweed); Datura stramonium, PPI application, 300 g/ha, read-out: Percent inhibition DATST): 60% | inhibition at 900 g/ha (DATST (jimsonweed); Datura stramonium, PPI application, 900 g/ha, read-out: Percent inhibition DATST): 99% | PPI activity (GR80) DATST (DATST (jimsonweed); [5]): 300 g/ha | inhibition at 10 g/ha (SORVU (shattercane) [3]; Sorghum bicolor, PPI application, 10 g/ha, read-out: Percent inhibition SORVU): 20% | inhibition at 30 g/ha (SORVU (shattercane) [3]; Sorghum bicolor, PPI application, 30 g/ha, read-out: Percent inhibition SORVU): 70% | inhibition at 100 g/ha (SORVU (shattercane) [3]; Sorghum bicolor, PPI application, 100 g/ha, read-out: Percent inhibition SORVU): 100% | inhibition at 300 g/ha (SORVU (shattercane) [3]; Sorghum bicolor, PPI application, 300 g/ha, read-out: Percent inhibition SORVU): 100% | inhibition at 900 g/ha (SORVU (shattercane) [3]; Sorghum bicolor, PPI application, 900 g/ha, read-out: Percent inhibition SORVU): 100% | PPI activity GR80, SORVU (SORVU (shattercane) [3]; [6]): * (activity observed, at least at highest rate, but <80% inhibition) | inhibition at 10 g/ha (DIGSA (large crabgrass); Digitaria sanguinalis, PPI application, 10 g/ha, read-out: Percent inhibition DIGSA): 60% | inhibition at 30 g/ha (DIGSA (large crabgrass); Digitaria sanguinalis, PPI application, 30 g/ha, read-out: Percent inhibition DIGSA): 80% | inhibition at 100 g/ha (DIGSA (large crabgrass); Digitaria sanguinalis, PPI application, 100 g/ha, read-out: Percent inhibition DIGSA): 80% | inhibition at 300 g/ha (DIGSA (large crabgrass); Digitaria sanguinalis, PPI application, 300 g/ha, read-out: Percent inhibition DIGSA): 80% | inhibition at 900 g/ha (DIGSA (large crabgrass); Digitaria sanguinalis, PPI application, 900 g/ha, read-out: Percent inhibition DIGSA): 100% | PPI activity GR80, DIGSA (DIGSA (large crabgrass); [6]): 30 g/ha | PPI activity GR80, STEME (STEME (common chickweed); [6]): 10 g/ha | inhibition at 10 g/ha ([4]; Aegilops cylindrica, weed, PPI application, 10 g/ha, read-out: Percent inhibition AEGCY): 0% | inhibition at 30 g/ha ([4]; Aegilops cylindrica, weed, PPI application, 30 g/ha, read-out: Percent inhibition AEGCY): 0% | inhibition at 100 g/ha ([4]; Aegilops cylindrica, weed, PPI application, 100 g/ha, read-out: Percent inhibition AEGCY): 0% | inhibition at 300 g/ha ([4]; Aegilops cylindrica, weed, PPI application, 300 g/ha, read-out: Percent inhibition AEGCY): 20% | inhibition at 900 g/ha ([4]; Aegilops cylindrica, weed, PPI application, 900 g/ha, read-out: Percent inhibition AEGCY): 40% | PPI activity GR80, AEGCY [4, 6]: 100 g/ha | inhibition at 10 g/ha (POAAN (annual bluegrass); Poa annua, 10 g/ha, read-out: Percent inhibition POAAN): 10% | inhibition at 30 g/ha (POAAN (annual bluegrass); Poa annua, 30 g/ha, read-out: Percent inhibition POAAN): 60% | inhibition at 100 g/ha (POAAN (annual bluegrass); Poa annua, 100 g/ha, read-out: Percent inhibition POAAN): 70% | inhibition at 300 g/ha (POAAN (annual bluegrass); Poa annua, 300 g/ha, read-out: Percent inhibition POAAN): 95% | inhibition at 900 g/ha (POAAN (annual bluegrass); Poa annua, 900 g/ha, read-out: Percent inhibition POAAN): 100% | inhibition at 10 g/ha (oilseed rape (BRSNS); Brassica napus, 10 g/ha, read-out: Percent inhibition BRSNS): 0% | inhibition at 30 g/ha (oilseed rape (BRSNS); Brassica napus, 30 g/ha, read-out: Percent inhibition BRSNS): 0% | inhibition at 100 g/ha (oilseed rape (BRSNS); Brassica napus, 100 g/ha, read-out: Percent inhibition BRSNS): 0% | inhibition at 300 g/ha (oilseed rape (BRSNS); Brassica napus, 300 g/ha, read-out: Percent inhibition BRSNS): 60% | inhibition at 900 g/ha (oilseed rape (BRSNS); Brassica napus, 900 g/ha, read-out: Percent inhibition BRSNS): 95%

CCN(CC)C(=O)n1cnc(S(=O)(=O)C(F)(F)C(F)(F)Br)n1 [Example 4]
Pre-emergence activity (GR80) CHEAL [1]: 30 g/ha | Pre-emergence activity (GR80) SORVU (SORVU (shattercane) [2]): * (activity observed, at least at highest rate, but <80% inhibition) | Percent inhibition ABUTH (ABUTH (velvetleaf); PPI application, 30 g/ha): 0% | Percent inhibition ABUTH (ABUTH (velvetleaf); PPI application, 100 g/ha): 0% | Percent inhibition ABUTH (ABUTH (velvetleaf); PPI application, 300 g/ha): 20% | Percent inhibition ABUTH (ABUTH (velvetleaf); PPI application, 900 g/ha): 70% | Percent inhibition DATST (DATST (jimsonweed); PPI application, 30 g/ha): 0% | Percent inhibition DATST (DATST (jimsonweed); PPI application, 100 g/ha): 0% | Percent inhibition DATST (DATST (jimsonweed); PPI application, 300 g/ha): 40% | Percent inhibition DATST (DATST (jimsonweed); PPI application, 900 g/ha): 75% | Percent inhibition SORVU (SORVU (shattercane) [3]; PPI application, 30 g/ha): 0% | Percent inhibition SORVU (SORVU (shattercane) [3]; PPI application, 100 g/ha): 45% | Percent inhibition SORVU (SORVU (shattercane) [3]; PPI application, 300 g/ha): 100% | Percent inhibition SORVU (SORVU (shattercane) [3]; PPI application, 900 g/ha): 100% | Percent inhibition DIGSA (DIGSA (large crabgrass); PPI application, 30 g/ha): 85% | Percent inhibition DIGSA (DIGSA (large crabgrass); PPI application, 100 g/ha): 90% | Percent inhibition DIGSA (DIGSA (large crabgrass); PPI application, 300 g/ha): 100% | Percent inhibition DIGSA (DIGSA (large crabgrass); PPI application, 900 g/ha): 100% | Percent inhibition STEME (STEME (common chickweed); 30 g/ha): 10% | Percent inhibition STEME (STEME (common chickweed); 100 g/ha): 60% | Percent inhibition STEME (STEME (common chickweed); 300 g/ha): 80% | Percent inhibition STEME (STEME (common chickweed); 900 g/ha): 95% | Percent inhibition AEGCY ([4]; weed, PPI application, 30 g/ha): 0% | Percent inhibition AEGCY ([4]; weed, PPI application, 100 g/ha): 30% | Percent inhibition AEGCY ([4]; weed, PPI application, 300 g/ha): 50% | Percent inhibition AEGCY ([4]; weed, PPI application, 900 g/ha): 30% | Percent inhibition POAAN (POAAN (annual bluegrass); 30 g/ha): 95% | Percent inhibition POAAN (POAAN (annual bluegrass); 100 g/ha): 75% | Percent inhibition POAAN (POAAN (annual bluegrass); 300 g/ha): 100% | Percent inhibition POAAN (POAAN (annual bluegrass); 900 g/ha): 100% | Percent inhibition BRSNS (oilseed rape (BRSNS); 30 g/ha): 80% | Percent inhibition BRSNS (oilseed rape (BRSNS); 100 g/ha): 100% | Percent inhibition BRSNS (oilseed rape (BRSNS); 300 g/ha): 100% | Percent inhibition BRSNS (oilseed rape (BRSNS); 900 g/ha): 100%

Source: patent US6461997B1, “Triazole sulfones having herbicidal activity” (Monsanto Technology LLC, priority 1999, dated 2002)
